In ChEMBL document CHEMBL5727929, “CXCR4 inhibitors and uses thereof” (2020):

Experiment: Binding Inhibition Assay: Jurkat cells expressing CXCR4 were washed once with assay buffer (Hanks' balanced salt solution with 20 mM HEPES buffer and 0.2% bovine serum albumin, pH 7.4) and then incubated for 15 min at room temperature with the test compounds diluted in assay buffer at dose-dependent concentrations. Subsequently, CXCL12-AF647 (25 ng/mL) was added to the compound-incubated cells. The cells were incubated for 30 min at room temperature. Thereafter, the cells were washed twice in assay buffer, fixed in 1% paraformaldehyde in PBS, and analyzed on the FL4 channel of a FACSCalibur flow cytometer equipped with a 635-nm red diode lase.

CC[C@H](O)c1c([C@H]2CCC[C@@H](c3ncccc3C)N2C)nc2cccc(N3CCN(C)CC3)n12 gave an IC50 of 0.01 to 100 nM.
